# According to patent US10729688B2, “Hepatitis B antiviral agents” (Enanta Pharmaceuticals, Inc., priority 2018, dated 2020):
# Legend:
# HBV = assay: HepAD38 antiviral assay: reduction of viral product accumulation; type: cell-based; conditions: Hepatitis B virus, 120 h; HepAD38 cells, tetracycline removed; harvest five days after compound addition; viral product (virion DNA by qPCR, or HBsAg/HBeAg by ELISA) reduced by 50% relative to no drug controls
# Procedure: (§1) Methods: HepAD38 cells were maintained as previously reported (Ladner et al, Antimicrob. Agents Chemother. 1997, 4, 1715). Briefly, cells were passaged upon attaining confluency in DMEM/F12 media in the presence of 10% FBS, Penn/Strep, 250 μg/mL G418, and 1 ug/ml tetracycline. Compounds were screened by first washing cells three times with PBS to remove tetracycline, and plating in 96 well plates at 35,000 cells/well. Compounds dissolved in DMSO were then diluted 1:200 into wells containing cells. Five days after compound addition, material was harvested for analysis. For an extended 8 day analysis, cells were plated and treated as described above, but media and compound were refreshed on day 2 and day 5 post initial treatment.
# On harvest day, virion DNA was obtained by lysing with Sidestep Lysis and Stabilization Buffer and then quantified via quantitative real time PCR. Commercially available ELISA kits were used to quantitate the viral proteins HBsAg (Alpco) or HbeAg (US Biological) by following the manufacturer's recommended protocol after diluting samples to match the linear range of their respective assays. Irrespective of readout, compound concentrations that reduce viral product accumulation in the cell lysates or supernatants by 50% relative to no drug controls (EC50) are reported; EC50 ranges are as follows: A<0.1 μM; B 0.1-0.2 μM; C>0.2 μM.
# [1] = Compound toxicity, ATPLite total ATP levels; type: cell-based; conditions: human, HepAD38 cells; 15,000 cells/well; three days after compound addition; total ATP levels reduced by 50% relative to no drug controls
# Procedure: as §1
# Compound toxicity was evaluated by seeding cells at 15,000 cells/well and treating with compound as described above.
smiles,measurement,setting,value
O=C(Nc1cc(F)c(F)c(F)c1)N1Cc2c(N3C(=O)O[C@@H]4CCCC[C@@H]43)cnn2[C@@H]2CCC[C@@H]21 [Example 53],EC50,HBV,< 0.1 µM
same,CC50 at 3 days,[1],> 25 µM
